Data from ChEMBL document CHEMBL1153520, “A multivalent approach to the design and discovery of orally efficacious 5-HT4 receptor agonists” (J Med Chem, 2009).

Tests used:
[1] = species: Homo sapiens; experiment: Selectivity ratio of Ki for human 5HT3A receptor to Ki for human 5HT4C receptor
[2] = target: T1, 5-hydroxytryptamine receptor 4 (Homo sapiens, UniProt Q13639); experiment: Intrinsic activity at human 5HT4C receptor expressed in HEK293 cells assessed as accumulation of cAMP by flash plate adenylyl cyclase activation assay relative to serotonin; format: functional, cell-based
T1 sequence (Q13639 whole entry): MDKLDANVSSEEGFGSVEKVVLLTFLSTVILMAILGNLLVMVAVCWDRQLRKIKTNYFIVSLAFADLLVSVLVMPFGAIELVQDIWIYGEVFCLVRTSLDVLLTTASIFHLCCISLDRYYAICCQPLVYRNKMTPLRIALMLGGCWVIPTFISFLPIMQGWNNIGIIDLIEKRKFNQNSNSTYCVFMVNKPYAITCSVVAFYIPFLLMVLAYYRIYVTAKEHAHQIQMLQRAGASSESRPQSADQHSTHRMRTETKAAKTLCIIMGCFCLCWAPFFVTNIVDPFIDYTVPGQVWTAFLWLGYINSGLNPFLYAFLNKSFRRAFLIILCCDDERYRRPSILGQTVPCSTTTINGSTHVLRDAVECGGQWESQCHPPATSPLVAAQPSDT

[3] = target: T1, 5-hydroxytryptamine receptor 4; experiment: Agonist activity at human 5HT4C receptor expressed in HEK293 cells assessed as accumulation of cAMP by flash plate adenylyl cyclase activation assay; format: functional, cell-based
[4] = target: T1, 5-hydroxytryptamine receptor 4; experiment: Displacement of [H]GR-113808 from human 5HT4C receptor expressed in HEK293 cells by liquid scintillation counting; format: cell-based

Structure (SMILES) | Ratio Ki [1] | Intrinsic activity [2] [%] | EC50 [3] [nM] | Ki [4] [nM]
COc1cc(N)c(Cl)cc1C(=O)NC1CCN(CCCCCN2CCN(S(C)(=O)=O)CC2)CC1 | 280 | > 100 | 12.6 | 39.8
COc1cc(N)c(Cl)cc1C(=O)NC1CCN(CCCCCCCCN2C(=O)c3ccccc3C2=O)CC1 | 40 | 89 | 3.16 | 39.8
CC(C)n1c(=O)c(C(=O)N[C@H]2C[C@H]3CC[C@@H](C2)N3CCN2C(=O)c3ccccc3C2=O)cc2ccccc21 | 55 | > 100 | 79.4 | 1000
CC(C)n1c(=O)c(C(=O)NCC2CCNCC2)cc2ccccc21 | 1.2 | > 100 | 100 | 794
COc1cc(N)c(Cl)cc1C(=O)NC1CCN(CCCCCCCCN2CCN(S(C)(=O)=O)CC2)CC1 | 330 | > 100 | 39.8 | 15.8
COc1cc(N)c(Cl)cc1C(=O)NC1CCN(CCN2CCCCC2)CC1 | 3.9 | > 100 | 100 | 251
CCCCCN1[C@@H]2CC[C@H]1C[C@@H](NC(=O)c1cc3ccccc3n(C(C)C)c1=O)C2 | 890 | > 100 | 39.8 | 63.1
CC(C)n1c(=O)c(C(=O)N[C@H]2C[C@H]3CC[C@@H](C2)N3CCCCCS(=O)(=O)O)cc2ccccc21 | 21 | > 100 | 12.6 | 1580
CC(C)n1c(=O)c(C(=O)N[C@H]2C[C@H]3CC[C@@H](C2)N3CCCCCN2C(=O)c3ccccc3C2=O)cc2ccccc21 | 1200 | > 100 | 25.1 | 15.8
COc1cc(N)c(Cl)cc1C(=O)NC1CCNCC1 | 0.095 | > 100 | 398 | 1580
COc1cc(N)c(Cl)cc1C(=O)NC1CCN(CCN(C)CCc2c[nH]c3ccccc23)CC1 | 290 | > 100 | 15.8 | 39.8
CC(C)n1c(=O)c(C(=O)NC2CCNCC2)cc2ccccc21 | 0.14 | > 100 | 158 | 3160
COc1cc(N)c(Cl)cc1C(=O)NC1CCN(CCN2CCN(S(C)(=O)=O)CC2)CC1 | 21 | 97 | 20 | 126
COc1cc(N)c(Cl)cc1C(=O)NC1CCN(CCCCCCCCN(C)CCc2c[nH]c3ccccc23)CC1 | 2800 | > 100 | 0.794 | 1.26
COc1cc(N)c(Cl)cc1C(=O)NC1CCN(CCCCCN(C)CCc2c[nH]c3ccccc23)CC1 | 12000 | > 100 | 1.26 | 1.58
CC(C)n1nc(C(=O)NCC2CCNCC2)c2ccccc21 | 3 | 0 | – | 7.94
COc1cc(N)c(Cl)cc1C(=O)NC1CCN(CCCCCN2C(=O)c3ccccc3C2=O)CC1 | 120 | > 100 | 5.01 | 20
COc1cc(N)c(Cl)cc1C(=O)NC1CCN(CCCCCCCCN2CCCCC2)CC1 | 2000 | > 100 | 3.16 | 3.16
COc1cc(N)c(Cl)cc1C(=O)NC1CCN(CCO)CC1 | 1.9 | > 100 | 63.1 | 200
CC(C)n1c(=O)c(C(=O)N[C@H]2C[C@H]3CC[C@@H](C2)N3CCCCCN(C)CCc2c[nH]c3ccccc23)cc2ccccc21 | 6000 | > 100 | 0.631 | 3.16
COc1cc(N)c(Cl)cc1C(=O)N[C@H]1C[C@H]2CC[C@@H](C1)N2 | 0.2 | 57 | 100 | 158
CCN1[C@@H]2CC[C@H]1C[C@@H](NC(=O)c1cc3ccccc3n(C(C)C)c1=O)C2 | 19 | 96 | 31.6 | 126
CCN1CCC(NC(=O)c2cc(Cl)c(N)cc2OC)CC1 | 4.2 | > 100 | 79.4 | 1000
COc1cc(N)c(Cl)cc1C(=O)NC1CCN(CCS(=O)(=O)O)CC1 | 1.5 | > 100 | 1580 | 25100
CC(C)n1c(=O)c(C(=O)N[C@H]2C[C@H]3CC[C@@H](C2)N3CCN2CCN(S(C)(=O)=O)CC2)cc2ccccc21 | 450 | > 100 | 6.31 | 63.1
CC(C)n1c(=O)n(C(=O)NCCN2CCNCC2)c2ccccc21 | 1 | > 100 | 7.94 | 126

Structure (SMILES) | Ratio Ki [1] | Intrinsic activity [2] [%] | EC50 [3] [nM] | Ki [4] [nM]
CC(C)n1c(=O)c(C(=O)N[C@H]2C[C@H]3CC[C@@H](C2)N3CCN(C)CCc2c[nH]c3ccccc23)cc2ccccc21 | 480 | 92 | 1.26 | 39.8
CC(C)n1c(=O)c(C(=O)N[C@H]2C[C@H]3CC[C@@H](C2)N3CCCCCN2CCCCC2)cc2ccccc21 | 8100 | > 100 | 1 | 5.01
CC(C)n1c(=O)c(C(=O)N[C@H]2C[C@H]3CC[C@@H](C2)N3CCCCCCCCN2CCN(S(C)(=O)=O)CC2)cc2ccccc21 | 2100 | > 100 | 3.16 | 15.8
COc1cc(N)c(Cl)cc1C(=O)NC1CCN(CCCCCCCCS(=O)(=O)O)CC1 | 4.3 | > 100 | 1000 | 15800
CC(C)n1c(=O)n(C(=O)N[C@H]2C[C@H]3CC[C@@H](C2)N3)c2ccccc21 | 0.013 | > 100 | 15.8 | 316
CC(C)n1nc(C(=O)N[C@H]2C[C@H]3CC[C@@H](C2)N3)c2ccccc21 | 0.092 | 94 | 39.8 | 63.1
COc1cc(N)c(Cl)cc1C(=O)NC1CCN(CCN2C(=O)c3ccccc3C2=O)CC1 | 13 | 94 | 631 | 7940
CCCCCN1CCC(NC(=O)c2cc(Cl)c(N)cc2OC)CC1 | 33 | > 100 | 25.1 | 100
CC(C)n1nc(C(=O)NC2CCNCC2)c2ccccc21 | 0.52 | 50 | 200 | 398
CC(C)n1c(=O)c(C(=O)N[C@H]2C[C@H]3CC[C@@H](C2)N3CCCCCO)cc2ccccc21 | 460 | > 100 | 25.1 | 63.1
CC(C)n1c(=O)n(C(=O)NC2CCNCC2)c2ccccc21 | 0.019 | > 100 | 316 | 1580
COc1cc(N)c(Cl)cc1C(=O)NCC1CCNCC1 | 0.12 | 81 | 398 | 316
COc1cc(N)c(Cl)cc1C(=O)NC1CCN(CCCCCO)CC1 | 110 | > 100 | 15.8 | 63.1
CC(C)n1c(=O)c(C(=O)N[C@H]2C[C@H]3CC[C@@H](C2)N3CCO)cc2ccccc21 | 3.2 | > 100 | 31.6 | 126
CCCCCCCCN1CCC(NC(=O)c2cc(Cl)c(N)cc2OC)CC1 | 23 | > 100 | 39.8 | 79.4
CC(C)n1c(=O)c(C(=O)N[C@H]2C[C@H]3CC[C@@H](C2)N3CCCCCN2CCN(S(C)(=O)=O)CC2)cc2ccccc21 | 2800 | > 100 | 1.26 | 15.8
CC(C)n1c(=O)c(C(=O)N[C@H]2C[C@H]3CC[C@@H](C2)N3CCCCCCCCO)cc2ccccc21 | 1100 | > 100 | 15.8 | 50.1
COc1ccc2[nH]cc(C(=O)N[C@H]3C[C@H]4CC[C@@H](C3)N4)c2c1 | 1.4 | 77 | 2510 | 3160
CCCCCCCCN1[C@@H]2CC[C@H]1C[C@@H](NC(=O)c1cc3ccccc3n(C(C)C)c1=O)C2 | 150 | > 100 | 39.8 | 63.1
COc1cc(N)c(Cl)cc1C(=O)NC1CCN(CCCCCS(=O)(=O)O)CC1 | 0.15 | 93 | 398 | 6310
CC(C)n1c(=O)n(C(=O)NCC2CCNCC2)c2ccccc21 | 0.21 | 92 | 15.8 | 39.8
COc1ccc2[nH]cc(C(=O)NCCN3CCNCC3)c2c1 | 25 | 0 | – | 316
COc1ccc2[nH]cc(C(=O)NC3CCNCC3)c2c1 | 6.7 | 0 | – | 3160
CC(C)n1c(=O)c(C(=O)N[C@H]2C[C@H]3CC[C@@H](C2)N3CCCCCCCCN(C)CCc2c[nH]c3ccccc23)cc2ccccc21 | 2300 | > 100 | 1 | 3.16
CC(C)n1c(=O)c(C(=O)N[C@H]2C[C@H]3CC[C@@H](C2)N3CCCCCCCCS(=O)(=O)O)cc2ccccc21 | 230 | > 100 | 20 | 63.1
CC(C)n1c(=O)c(C(=O)N[C@H]2C[C@H]3CC[C@@H](C2)N3CCCCCCCCN2C(=O)c3ccccc3C2=O)cc2ccccc21 | 120 | > 100 | 50.1 | 31.6
